Patent publication US20070149439A1 (priority 2001, published 2007)
Where “and” joins values, the source holds several entries; their conditions need not be identical. Equal values may be shown once. Read-outs that look alike come from different tables or passages of the source. Where no end group is shown, it is not given here.

Key:
[1] = test system: cerebral cortical precursors of E15.5 rat embryos; assay: [3H]thymidine incorporation (DNA synthesis) in cerebral hemispheres after transuterine intracerebroventricular injection; assay type: in vivo; conditions: vs vehicle
Procedure: Transuterine intracerebroventricular injection. Intraventricular injection was done as described. […] Dye enhancement of the ventricles indicated successful injections.
Quantification. Newly synthesized DNA was measured after TCA precipitation. Tissues were homogenized in 10 volumes of distilled water. After reserving aliquots to assess total tissue [^3H]dT uptake, DNA was precipitated with 10% TCA, centrifuged, and washed twice in 10% TCA. Pellets were dissolved and counted along with aliquots by scintillation spectrometry.

[2] = biological target: T1, PAC1 (Homo sapiens, UniProt P41586); conditions: higher affinity than PACAP6-38; cited from earlier work
T1 sequence (P41586 21-468): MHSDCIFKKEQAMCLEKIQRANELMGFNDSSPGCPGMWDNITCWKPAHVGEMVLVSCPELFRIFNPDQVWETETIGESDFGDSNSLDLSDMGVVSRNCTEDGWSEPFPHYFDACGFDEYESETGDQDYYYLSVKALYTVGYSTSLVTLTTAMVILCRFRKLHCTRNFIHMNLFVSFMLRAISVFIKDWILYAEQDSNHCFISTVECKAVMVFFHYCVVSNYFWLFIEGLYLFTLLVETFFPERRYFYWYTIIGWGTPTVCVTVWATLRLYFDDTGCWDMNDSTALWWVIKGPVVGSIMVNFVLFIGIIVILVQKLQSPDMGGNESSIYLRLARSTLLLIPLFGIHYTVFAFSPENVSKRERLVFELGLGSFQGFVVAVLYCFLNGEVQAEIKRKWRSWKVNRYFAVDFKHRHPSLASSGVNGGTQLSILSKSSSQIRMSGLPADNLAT

[3] = test system: BrdU-labeled precursors in the CP
Description: (§1) For BrdU immunohistochemistry, E15.5 and E18.5 tissues were fixed in 4% PFA, paraffin-embedded, and sectioned (4 μm) coronally. E20.5 tissues were perfusion-fixed in 2% PFA, cryoprotected, and sectioned at 15 μm. The tissues were immunostained. Then, the tissues were double-labeled with antibodies to neuron specific markers TuJ1 (1:200, Biogenesis, Poole, United Kingdom), tau (1:200, I. Fischer, Med. Coll. Penn.) and MAP2c (1:2000, I. Fischer) or glial markers, vimentin (1:4, Roche) and GFAP (1:1000, Sigma), visualizing with Texas Red for BrdU and FITC for phenotypic markers. TUNEL assay was done according to the manufacturer (Oncor, Gaithersburg, Md.) on sections adjacent to those used for BrdU.
(§2) Transuterine intracerebroventricular injection. Intraventricular injection was done as described. Following anesthesia (ketamine 30 mg per kg/xylazine 3 mg per kg) and laparotomy of E15.5 pregnant dams, 1 μl of vehicle or factors and 0.05% fast green was delivered into the embryonic lateral ventricle through the uterine wall, using drawn capillary pipettes. Dye enhancement of the ventricles indicated successful injections. After closure, dams were injected subcutaneously with markers of DNA synthesis, [^3H]dT (4 μCi/g, NEN) and BrdU (100 μg/g) at 3 h and sacrificed at 4 h. One embryonic hemisphere was assayed for [^3H]dT incorporation and the other for immunohistochemistry.
(§3) For labeling index, the analysis was done in the dorsolateral sector of 3 non-adjacent coronal cortex sections per brain, using a camera lucida (Zeiss, Thornwood, N.Y.) under 400× magnification. For E15.5 sections, BrdU(+) nuclei and total nuclei were scored within a 100 μm×100, μm sector based on the ventricular surface extending to the pial surface. BrdU(+) cells in the CP were counted in centrally located sectors extending 100 μm (E18.5 sections) or 200 μm (E20.5 sections) in the mediolateral dimension.

[4] = test system: VZ precursors of E15.5 rat cortex
Description: as §1, §2, §3

[5] = test system: cortical precursors in culture; conditions: cited from earlier work
[6] = injectant volume 1 μl ICV at E15.5, 4 h

Compound: Nc1ncnc2c1ncn2[C@@H]1O[C@@H]2CO[P@@](O)(=S)O[C@H]2[C@H]1O [Rp-cAMPS]
- % Stimulation of DNA synthesis ([3H]dT incorporation) [1, 6]: 28.3 ± 3.1 %

Compound: M65: newly defined PAC1 antagonist derived from sand fly peptide maxadilan
- % Stimulation of DNA synthesis ([3H]dT incorporation) [1, 6]: 14% and 13.4 ± 4.6 %
- % Stimulation of DNA synthesis ([3H]dT incorporation) ([1]; injectant volume 2 μl (twice the dose) ICV at E15.5, 4 h): 20% and 20.1 ± 7.0 %
- affinity for PAC1 relative to PACAP6-38 [2]: 6 fold

Compound: PACAP6-38: specific PAC1 antagonist (FTDSYSRYRKQMAVKKYLAAVLGKRYKQRVKNK; ends and bridges not checked)
- % Stimulation of DNA synthesis ([3H]dT incorporation) [1, 6]: 10±2.2%

Compound: Pituitary Adenylate Cyclase-Activating Polypeptide [PACAP]
- decrease of DNA synthesis, [3H]dT incorporation into cerebral hemispheres ([1]; PACAP 10^-5 M, ICV into E15.5 rat lateral ventricle, four hours later): 24%
- less mitotically labeled (BrdU+) cells in the CP ([3]; 3 days (E18.5) after PACAP administration at E15.5): 38%
- less mitotically labeled (BrdU+) cells in the CP ([3]; 5 days (E20.5) after PACAP administration at E15.5): 33%
- Labeling Index (LI), BrdU(+) nuclei in VZ ([4]; 4 hours after ICV injection at E15.5, n=6/group): 26±1.3%
- decrease of Labeling Index / mitotic labeling ([4]; 4 hours after ICV injection at E15.5, vs vehicle): 25% and 26%
- effect on proliferative effects of mitogenic IGF-I, bFGF and EGF [5]: inhibited proliferative effects
